The source made the active and inactive calls. The rule behind the calls is not given here.
Assays:
Nannizzia gypsea [1] = assay: Antifungal activity against Microsporum gypseum at 500 ppm after 72 to 96 hr by disk diffusion method; assay type: functional; settings: read-out: IZ
Nannizzia gypsea [2] = assay: Antifungal activity against Microsporum gypseum at 200 ppm after 72 to 96 hr by disk diffusion method; assay type: functional; settings: read-out: IZ
Rhizopus [3] = assay: Antifungal activity against Rhizopus at 500 ppm after 72 to 96 hr by disk diffusion method; assay type: functional; settings: read-out: IZ
Nannizzia gypsea [4] = assay: Antifungal activity against Microsporum gypseum at 100 ppm after 72 to 96 hr by disk diffusion method; assay type: functional; settings: read-out: IZ
Rhizopus [5] = assay: Antifungal activity against Rhizopus at 200 ppm after 72 to 96 hr by disk diffusion method; assay type: functional; settings: read-out: IZ
Vibrio cholerae [6] = assay: Antibacterial activity against Vibrio cholerae at 100 ppm after 24 hr by disk diffusion method; assay type: functional; settings: read-out: IZ
Streptococcus [7] = assay: Antibacterial activity against beta-hemolytic Streptococcus at 500 ppm after 24 hr by disk diffusion method; assay type: functional; settings: read-out: IZ
Streptococcus [8] = assay: Antibacterial activity against beta-hemolytic Streptococcus at 100 ppm after 24 hr by disk diffusion method; assay type: functional, organism-based
Streptococcus [9] = assay: Antibacterial activity against beta-hemolytic Streptococcus at 200 ppm after 24 hr by disk diffusion method; assay type: functional; settings: read-out: IZ
Staphylococcus aureus [10] = assay: Antibacterial activity against Staphylococcus aureus at 500 ppm after 24 hr by disk diffusion method; assay type: functional; settings: read-out: IZ
Staphylococcus aureus [11] = assay: Antibacterial activity against Staphylococcus aureus at 200 ppm after 24 hr by disk diffusion method; assay type: functional; settings: read-out: IZ
Staphylococcus aureus [12] = assay: Antibacterial activity against Staphylococcus aureus at 100 ppm after 24 hr by disk diffusion method; assay type: functional
Rhizopus [13] = assay: Antifungal activity against Rhizopus at 100 ppm after 72 to 96 hr by disk diffusion method; assay type: functional
Mucor [14] = assay: Antifungal activity against Mucor at 500 ppm after 72 to 96 hr by disk diffusion method; assay type: functional; settings: read-out: IZ
Mucor [15] = assay: Antifungal activity against Mucor at 200 ppm after 72 to 96 hr by disk diffusion method; assay type: functional; settings: read-out: IZ
Mucor [16] = assay: Antifungal activity against Mucor at 100 ppm after 72 to 96 hr by disk diffusion method; assay type: functional
Aspergillus flavus [17] = assay: Antifungal activity against Aspergillus flavus at 500 ppm after 72 to 96 hr by disk diffusion method; assay type: functional; settings: read-out: IZ
Aspergillus flavus [18] = assay: Antifungal activity against Aspergillus flavus at 200 ppm after 72 to 96 hr by disk diffusion method; assay type: functional; settings: read-out: IZ
Pseudomonas [19] = assay: Antibacterial activity against Pseudomonas at 500 ppm after 24 hr by disk diffusion method; assay type: functional; settings: read-out: IZ
Aspergillus flavus [20] = assay: Antifungal activity against Aspergillus flavus at 100 ppm after 72 to 96 hr by disk diffusion method; assay type: functional; settings: read-out: IZ
Pseudomonas [21] = assay: Antibacterial activity against Pseudomonas at 200 ppm after 24 hr by disk diffusion method; assay type: functional; settings: read-out: IZ
Pseudomonas [22] = assay: Antibacterial activity against Pseudomonas at 100 ppm after 24 hr by disk diffusion method; assay type: functional
Klebsiella pneumoniae [23] = assay: Antibacterial activity against Klebsiella pneumoniae at 500 ppm after 24 hr by disk diffusion method; assay type: functional; settings: read-out: IZ
Klebsiella pneumoniae [24] = assay: Antibacterial activity against Klebsiella pneumoniae at 200 ppm after 24 hr by disk diffusion method; assay type: functional; settings: read-out: IZ
Escherichia coli [25] = assay: Antibacterial activity against Escherichia coli at 500 ppm after 24 hr by disk diffusion method; assay type: functional; settings: read-out: IZ
Klebsiella pneumoniae [26] = assay: Antibacterial activity against Klebsiella pneumoniae at 100 ppm after 24 hr by disk diffusion method; assay type: functional; settings: read-out: IZ
Escherichia coli [27] = assay: Antibacterial activity against Escherichia coli at 200 ppm after 24 hr by disk diffusion method; assay type: functional; settings: read-out: IZ
Escherichia coli [28] = assay: Antibacterial activity against Escherichia coli at 100 ppm after 24 hr by disk diffusion method; assay type: functional, organism-based
Shigella flexneri [29] = assay: Antibacterial activity against Shigella flexneri at 500 ppm after 24 hr by disk diffusion method; assay type: functional; settings: read-out: IZ
Shigella flexneri [30] = assay: Antibacterial activity against Shigella flexneri at 200 ppm after 24 hr by disk diffusion method; assay type: functional; settings: read-out: IZ
Salmonella typhi [31] = assay: Antibacterial activity against Salmonella enterica subsp. enterica serovar Typhi at 200 ppm after 24 hr by disk diffusion method; assay type: functional; settings: read-out: IZ
Vibrio cholerae [32] = assay: Antibacterial activity against Vibrio cholerae at 500 ppm after 24 hr by disk diffusion method; assay type: functional; settings: read-out: IZ
Salmonella typhi [33] = assay: Antibacterial activity against Salmonella enterica subsp. enterica serovar Typhi at 100 ppm after 24 hr by disk diffusion method; assay type: functional; settings: read-out: IZ
Vibrio cholerae [34] = assay: Antibacterial activity against Vibrio cholerae at 200 ppm after 24 hr by disk diffusion method; assay type: functional; settings: read-out: IZ
Shigella flexneri [35] = assay: Antibacterial activity against Shigella flexneri at 100 ppm after 24 hr by disk diffusion method; assay type: functional; settings: read-out: IZ
Salmonella typhi [36] = assay: Antibacterial activity against Salmonella enterica subsp. enterica serovar Typhi at 500 ppm after 24 hr by disk diffusion method; assay type: functional; settings: read-out: IZ

Q: Which results are given for `CC1(C)c2nnsc2C(c2ccc(F)cc2)NC1c1ccc(F)cc1` (configuration not stated)?
A: zone of inhibition at 500 ppm (Nannizzia gypsea [1]): 30 mm; zone of inhibition at 200 ppm (Nannizzia gypsea [2]): 22 mm; zone of inhibition at 500 ppm (Rhizopus [3]): 22 mm; zone of inhibition at 100 ppm (Nannizzia gypsea [4]): 17 mm; zone of inhibition at 200 ppm (Rhizopus [5]): 22 mm; zone of inhibition at 100 ppm (Vibrio cholerae [6]): 12 mm; zone of inhibition at 500 ppm (Streptococcus [7]): 22 mm; inhibition zone (IZ) (Streptococcus [8]): inactive; zone of inhibition at 200 ppm (Streptococcus [9]): 17 mm; zone of inhibition at 500 ppm (Staphylococcus aureus [10]): 30 mm; zone of inhibition at 200 ppm (Staphylococcus aureus [11]): 22 mm; inhibition zone (IZ) (Staphylococcus aureus [12]): inactive; zone of inhibition at 100 ppm (Rhizopus [13]; read-out: IZ): 12 mm; zone of inhibition at 500 ppm (Mucor [14]): 17 mm; zone of inhibition at 200 ppm (Mucor [15]): 17 mm; inhibition zone (IZ) (Mucor [16]): inactive; zone of inhibition at 500 ppm (Aspergillus flavus [17]): 17 mm; zone of inhibition at 200 ppm (Aspergillus flavus [18]): 17 mm; zone of inhibition at 500 ppm (Pseudomonas [19]): 17 mm; zone of inhibition at 100 ppm (Aspergillus flavus [20]): 12 mm; zone of inhibition at 200 ppm (Pseudomonas [21]): 17 mm; inhibition zone (IZ) (Pseudomonas [22]): inactive; zone of inhibition at 500 ppm (Klebsiella pneumoniae [23]): 22 mm; zone of inhibition at 200 ppm (Klebsiella pneumoniae [24]): 17 mm; zone of inhibition at 500 ppm (Escherichia coli [25]): 17 mm; zone of inhibition at 100 ppm (Klebsiella pneumoniae [26]): 17 mm; zone of inhibition at 200 ppm (Escherichia coli [27]): 17 mm; inhibition zone (IZ) (Escherichia coli [28]): inactive; zone of inhibition at 500 ppm (Shigella flexneri [29]): 17 mm; zone of inhibition at 200 ppm (Shigella flexneri [30]): 17 mm; zone of inhibition at 200 ppm (Salmonella typhi [31]): 12 mm; zone of inhibition at 500 ppm (Vibrio cholerae [32]): 17 mm; zone of inhibition at 100 ppm (Salmonella typhi [33]): 12 mm; zone of inhibition at 200 ppm (Vibrio cholerae [34]): 17 mm; zone of inhibition at 100 ppm (Shigella flexneri [35]): 12 mm; zone of inhibition at 500 ppm (Salmonella typhi [36]): 12 mm

Q: With `COc1ccc(C2NC(c3ccc(OC)cc3)C(C)(C)c3nnsc32)cc1` (configuration not stated) as the molecule, how does the zone of inhibition at 500 ppm (Nannizzia gypsea [1]) read?
A: 30 mm

Q: What about the zone of inhibition at 200 ppm (Nannizzia gypsea [2]) of the same molecule?
A: 17 mm

Q: What about the zone of inhibition at 500 ppm (Rhizopus [3]) of the same molecule?
A: 22 mm

Q: And the zone of inhibition at 100 ppm (Nannizzia gypsea [4])?
A: 12 mm

Q: What about the zone of inhibition at 200 ppm (Rhizopus [5]) of the same molecule?
A: 12 mm

Q: And the zone of inhibition at 100 ppm (Vibrio cholerae [6])?
A: 12 mm

Q: What about the zone of inhibition at 500 ppm (Streptococcus [7]) of the same molecule?
A: 30 mm

Q: What about the “inhibition zone (IZ)” value (Streptococcus [8]) of the same molecule?
A: inactive

Q: What about the zone of inhibition at 200 ppm (Streptococcus [9]) of the same molecule?
A: 12 mm

Q: And the zone of inhibition at 500 ppm (Staphylococcus aureus [10])?
A: 30 mm

Q: What about the zone of inhibition at 200 ppm (Staphylococcus aureus [11]) of the same molecule?
A: 22 mm

Q: What about the zone of inhibition at 100 ppm (Staphylococcus aureus [12]; read-out: IZ) of the same molecule?
A: 12 mm

Q: What about the “inhibition zone (IZ)” value (Rhizopus [13]) of the same molecule?
A: inactive

Q: What about the zone of inhibition at 500 ppm (Mucor [14]) of the same molecule?
A: 17 mm

Q: What about the zone of inhibition at 200 ppm (Mucor [15]) of the same molecule?
A: 17 mm

Q: What about the zone of inhibition at 100 ppm (Mucor [16]; read-out: IZ) of the same molecule?
A: 12 mm

Q: And the zone of inhibition at 500 ppm (Aspergillus flavus [17])?
A: 17 mm

Q: What about the zone of inhibition at 200 ppm (Aspergillus flavus [18]) of the same molecule?
A: 12 mm

Q: And the zone of inhibition at 500 ppm (Pseudomonas [19])?
A: 12 mm

Q: What about the zone of inhibition at 100 ppm (Aspergillus flavus [20]) of the same molecule?
A: 12 mm

Q: What about the zone of inhibition at 200 ppm (Pseudomonas [21]) of the same molecule?
A: 12 mm

Q: What about the “inhibition zone (IZ)” value (Pseudomonas [22]) of the same molecule?
A: inactive

Q: What about the zone of inhibition at 500 ppm (Klebsiella pneumoniae [23]) of the same molecule?
A: 22 mm

Q: And the zone of inhibition at 200 ppm (Klebsiella pneumoniae [24])?
A: 17 mm

Q: And the zone of inhibition at 500 ppm (Escherichia coli [25])?
A: 17 mm

Q: And the zone of inhibition at 100 ppm (Klebsiella pneumoniae [26])?
A: 17 mm

Q: And the zone of inhibition at 200 ppm (Escherichia coli [27])?
A: 17 mm

Q: And the “inhibition zone (IZ)” value (Escherichia coli [28])?
A: inactive

Q: What about the zone of inhibition at 500 ppm (Shigella flexneri [29]) of the same molecule?
A: 17 mm

Q: What about the zone of inhibition at 200 ppm (Shigella flexneri [30]) of the same molecule?
A: 17 mm

Q: What about the zone of inhibition at 200 ppm (Salmonella typhi [31]) of the same molecule?
A: 17 mm

Q: And the zone of inhibition at 500 ppm (Vibrio cholerae [32])?
A: 17 mm

Q: What about the zone of inhibition at 100 ppm (Salmonella typhi [33]) of the same molecule?
A: 12 mm

Q: What about the zone of inhibition at 200 ppm (Vibrio cholerae [34]) of the same molecule?
A: 17 mm

Q: And the zone of inhibition at 100 ppm (Shigella flexneri [35])?
A: 12 mm

Q: What about the zone of inhibition at 500 ppm (Salmonella typhi [36]) of the same molecule?
A: 17 mm
